Results on six molecules are retold here after patent publication US4889872A, “2,3,5,6-Tetrafluorobenzyl (+) 1r-trans-2,2-dimethyl-3-(2,2-dichlorovinyl)-cyclopropanecarboxylate” (priority 1987, dated 1989).

Where two headings read alike, the source gives them in different places. Where only a bound is given, the exact number is not on record here.

The test system of one series is flies. The following applies: versus mixture of equal parts of the 2,3,5,6-tetrafluorobenzyl and 3,5,6-trifluorobenzyl ester; cited from earlier work.
The test system of series [1] is Musca domestica, resistant. Nature of the series: Aerosol Test (knock-down effect on resistant flies, 30 m^3 room). The format is in vivo. An excerpt:
In each experiment, 3 wire cages each containing 20 resistant male Musca domestica are suspended in rooms of volume 30 m^3. The room is then sprayed using spray cans containing active compounds I, II, III and IV or active compound mixtures I+IV; II+IV; V+VI; V+VI+I and V+VI+II according to formulation Examples 1-9.
The amount of spray applied per spray can is 12.4 g. After spraying, the rooms are sealed and the action of the spray mist on the flies observed continuously through windows. The number of minutes after which 50 and 95% of the animals had fallen onto their backs (knock-down effect) is recorded. After a tesst duration of 1 hour, the percentage of knocked-downanimals is subsequently determined. The table below contains the values determined.

Series [2] relates to rats. The settings on record: cited from earlier work.
In a further series the test system is Aedes aegypti. Nature of the series: Vapor test (knock-down action on mosquitoes, electroevaporator ovens). It is filed as in vivo. The settings on record: compound II 10 mg. The procedure:
Small cellulose tablets containing active compound according to formulation examples Nos. 9 and 10 are placed on the hotplate of small electroevaporator ovens, producing temperatures of 130° and 160° C. The instruments ae connected to the mains via a socket and heated up in living rooms of equal size and equally equipped.
During the experiment, one window in the rooms remained open to the outside in the tilted position. Immediately after switching on the ovens, 2 wire baskets each containing 20 mosquitoes of the Aedes aegypti species, 3-4 days old, were hung in each room. The knock-down action on the mosquitoes was checked half or one hour later. After the oven had burnt for a longer period, fresh mosquitoes were again introduced in the same way into the rooms at certain times, and the activity was again tested after half or one hour. The temperature of the heating oven, the amounts of reactive compounds, the heating duration, the test time and the knockdown effect can be seen from the table below.
(%Knock-down: percentage of mosquitoes which have fallen onto their backs).
In the present test, active compounds I (according to the invention) and II ((-)1R-trans-isomer of fenfluthrin) were employed.

Series [3] has as its system insects. Nature of the series: insecticidal / biological action (general statements). The format is in vivo.
Series [4] relates to rats. Nature of the series: oral toxicity to mammals (LD50, rats). The format is in vivo.
Series [5] can be described thus: oral toxicity to mammals (LD50, rats). The format is in vivo. The settings on record: rat, in vivo; male rats; oral.
The subject of series [6] is insects. The following applies: prior art, ester alone; cited from earlier work.
Setting [7] is: compound I 10 mg, oven 130 °C, animals introduced after 0 h heating, residence 1 h.
Where [8] appears, read: compound I 10 mg, oven 130 °C, animals introduced after 8 h heating, residence 1 h.
Where [9] appears, read: compound I 10 mg, oven 130 °C, animals introduced after 26 h heating, residence 1 h.
Where [10] appears, read: compound I 10 mg, oven 130 °C, animals introduced after 50 h heating, residence 1 h.
Setting [11] is: compound I 10 mg, oven 160 °C, animals introduced after 0 h heating, residence 1 h.
The mark [12] stands for this setting: compound I 10 mg, oven 160 °C, animals introduced after 8 h heating, residence 1 h.
Setting [13] is: compound I 10 mg, oven 160 °C, animals introduced after 26 h heating, residence 1 h.
Setting [14] is: compound I 20 mg, oven 130 °C, animals introduced after 0 h heating, residence 1 h.
Setting [15] is: compound I 20 mg, oven 130 °C, animals introduced after 8 h heating, residence 1 h.
[16] abbreviates: compound I 20 mg, oven 130 °C, animals introduced after 26 h heating, residence 1 h.
Where [17] appears, read: compound I 20 mg, oven 130 °C, animals introduced after 50 h heating, residence 1 h.
Setting [18] is: compound I 20 mg, oven 160 °C, animals introduced after 0 h heating, residence 1 h.
[19] abbreviates: compound I 20 mg, oven 160 °C, animals introduced after 8 h heating, residence 1 h.
Where [20] appears, read: compound I 20 mg, oven 160 °C, animals introduced after 28 h heating, residence 1 h.
Setting [21] is: compound I 30 mg, oven 130 °C, animals introduced after 0 h heating, residence 0.5 h.
[22] abbreviates: compound I 30 mg, oven 130 °C, animals introduced after 8 h heating, residence 0.5 h.
The mark [23] stands for this setting: compound I 30 mg, oven 130 °C, animals introduced after 26 h heating, residence 0.5 h.
[24] abbreviates: compound I 30 mg, oven 130 °C, animals introduced after 50 h heating, residence 0.5 h.
Setting [25] is: compound I 30 mg, oven 160 °C, animals introduced after 0 h heating, residence 0.5 h.
The mark [26] stands for this setting: compound I 30 mg, oven 160 °C, animals introduced after 8 h heating, residence 0.5 h.
Where [27] appears, read: compound I 30 mg, oven 160 °C, animals introduced after 28 h heating, residence 0.5 h.
Setting [28] is: compound I 30 mg, oven 160 °C, animals introduced after 32 h heating, residence 0.5 h.

Regarding `CC1(C)C(C=C(Cl)Cl)C1C(=O)OCc1c(F)c(F)c(F)c(F)c1F` (stereo not shown) [pentafluorobenzyl ester], the “amount that killed flies in the same time” value with flies is “only a fifteenth of it killed flies in the same time”.

Consider `COP(=O)(OC)OC=C(Cl)Cl` [Active compound IV, dichlorvos], for which, in series [1] (124 mg/30 m^3, 1 hour), the “% knock-down after 1 hour” value is recorded as 22%.

Take `CC1(C)[C@H](C=C(Cl)Cl)[C@H]1C(=O)OCc1c(F)c(F)c(F)c(F)c1F` [Active compound II, pentafluorobenzyl (-)1R-trans-2,2-dimethyl-3-(2,2-dichlorovinyl)-cyclopropanecarboxylate]: in the series with rats [2] (rats), the “oral LD50” value is 90 to 105 mg/kg. In addition, the “50% knock-down after minutes” value in series [1] (5 mg/30 m^3) is 19 min. Moreover, the “95% knock-down after minutes” value in series [1] (5 mg/30 m^3) was 37 min. The “% knock-down after 1 hour” value in series [1] (5 mg/30 m^3, 1 hour) amounted to 99%. Further, the “% knock-down” value in the series on Aedes aegypti (setting [7]) is on record as 100%; with Aedes aegypti (setting [8]), 100%; with Aedes aegypti (setting [9]), 100%; in the series on Aedes aegypti (setting [10]) it was 97%; in the series with Aedes aegypti (setting [11]), 100%; in the series with Aedes aegypti (setting [12]), 100%. The “% knock-down” value in the series with Aedes aegypti (setting [13]) came to 40%; with Aedes aegypti (setting [14]) it was 100%; with Aedes aegypti (setting [15]), 100%; with Aedes aegypti (setting [16]) it was 100%; in the series on Aedes aegypti (setting [17]) it was 95%; with Aedes aegypti (setting [18]) it was 100%. In addition, the “% knock-down” value in the series with Aedes aegypti (setting [19]) amounted to 100%; with Aedes aegypti (setting [20]), 92%; in the series with Aedes aegypti (setting [21]), 65%; in the series on Aedes aegypti (setting [22]), 100%; in the series with Aedes aegypti (setting [23]), 97%; with Aedes aegypti (setting [24]) it was 75%. The “% knock-down” value is on record as 45% in the series on Aedes aegypti (setting [25]), 100% in the series on Aedes aegypti (setting [26]), 92% with Aedes aegypti (setting [27]) and 47% in the series on Aedes aegypti (setting [28]).

The LD50 is the dose at which mortality reaches 50%. `CC1(C)[C@H](C=C(Cl)Cl)[C@H]1C(=O)OCc1c(F)c(F)cc(F)c1F` [Active compound I, 2,3,5,6-Tetrafluoro-benzyl (+)1R-trans-2,2-dimethyl-3-(2,2-dichlorovinyl)-cyclopropanecarboxylate]: the insecticidal action entry in the series on insects [3] (compared to pentafluorobenzyl (-)1R-trans ester, at the same or an only slightly higher dosage) is on record as “comparable insecticidal action”. The “50% knock-down after minutes” value in series [1] (5 mg/30 m^3) turned out to be 22 min; in series [1] (7.5 mg/30 m^3), 18 min. In addition, the entries for the “95% knock-down after minutes” value in series [1] (5 mg/30 m^3) and in series [1] (7.5 mg/30 m^3) were 47 min and 33 min, respectively. In addition, the “% knock-down after 1 hour” value in series [1] (5 mg/30 m^3, 1 hour) is given as 96%; in series [1] (7.5 mg/30 m^3, 1 hour), 99%. For the same molecule, the “% knock-down” value in the series with Aedes aegypti (setting [7]) was 100%; in the series with Aedes aegypti (setting [8]), 100%; with Aedes aegypti (setting [9]) it was 100%; in the series with Aedes aegypti (setting [10]), 85%; in the series with Aedes aegypti (setting [11]), 100%; in the series with Aedes aegypti (setting [12]), 100%. The “% knock-down” value in the series with Aedes aegypti (setting [13]) was determined as 55%; with Aedes aegypti (setting [14]) it was 100%; in the series with Aedes aegypti (setting [15]), 100%; in the series on Aedes aegypti (setting [16]), 100%; in the series on Aedes aegypti (setting [17]), 100%; in the series on Aedes aegypti (setting [18]), 100%. The “% knock-down” value in the series with Aedes aegypti (setting [19]) was 100%; in the series on Aedes aegypti (setting [20]), 100%; with Aedes aegypti (setting [21]), 97%; with Aedes aegypti (setting [22]), 100%; with Aedes aegypti (setting [23]) it was 100%; in the series on Aedes aegypti (setting [24]), 92%. Also, the “% knock-down” value in the series on Aedes aegypti (setting [25]), with Aedes aegypti (setting [26]), with Aedes aegypti (setting [27]) and in the series with Aedes aegypti (setting [28]) was 100% in each case. Besides, the therapeutic index entry in the series with rats [4] (gap between effective dose for the pest and toxicity to mammals) is “surprisingly favorable therapeutic index”. Besides, the “toxicity to mammals lower than that of pentafluorobenzyl (-)1R-trans ester” value in the series with rats [4] (ratio versus pentafluorobenzyl (-)1R-trans-2,2-dimethyl-3-(2,2-dichlorovinyl)-cyclopropanecarboxylate) stood at 50 times. Further, in the series with rats [4] (ratio versus tetrafluorobenzyl cis/trans-2,2-dimethyl-3-(2,2-dichlorovinyl)-cyclopropanecarboxylate), the “toxicity to mammals lower than that of tetrafluorobenzyl cis/trans ester” value is listed as “more than 250 times”. This molecule also gave a 50% lethal dose (LD50) in series [5] greater than 5000 mg/kg.

For `CC1(C)C(C=C(Cl)Cl)C1C(=O)OCc1c(F)c(F)cc(F)c1F` (racemic) [Active compound III, tetrafluorobenzyl cis/trans-2,2-dimethyl-3-(2,2-dichlorovinyl)-cyclopropanecarboxylate], in the series with insects [3] (compared with tetrafluorobenzyl (+)1R-trans ester according to the invention), the biological action entry is “lower biological action”. For the same molecule, the “oral LD50” value with rats [2] (male rats) was 10 to 25 mg/kg. For the same molecule, in series [1] (5 mg/30 m^3), the “50% knock-down after minutes” value worked out at 38 min and the “95% knock-down after minutes” value worked out at 52 min. In addition, the “% knock-down after 1 hour” value in series [1] (5 mg/30 m^3, 1 hour) turned out to be 97%.

With `CC1(C)C(C=C(Cl)Cl)C1C(=O)OCc1c(F)c(F)cc(F)c1F` (stereo not shown) [tetrafluorobenzyl ester], the insecticidal action entry with insects [6] was “good insecticidal action”.
